Assay [1] has as its system OSRC human osteogenic sarcoma tumor. Kind of assay: Osteosarcoma (OSRC) tumor model in nude mice. The format is in vivo, Nude nu/nu mice. The following applies: SQ treatments on days 8, 11, 14 and 17; n=4. The protocol: Tumor cell culture and harvesting was carried out as follows. Human osteogenic sarcoma cancer cells (OSRC cell line) was grown in DMEM containing additional non-essential amino acids and vitamins and 10% heat inactivated fetal bovine serum (Invitrogen™, Carlsbad, Calif.). Cells in log phase were harvested from flasks using trypsin-EDTA (0.05% trypsin/0.53 mM Na-EDTA; Invitrogen™), washed in PBS and resuspended in DMEM for counting and viability assessment using trypan blue exclusion. Cells were resuspended at 2.5×10^7 cells per ml in PBS for injection into the mice.
Nude nu/nu mice (4 to 5 week-old females, Charles River Labs, Wilmington, Mass.) were acclimated for 1 week before injection with 2.5 million OSRC cells subcutaneously (SQ) in a total volume of 100 μl. After 8 days of tumor development, the mice were injected SQ with each peptide or the protein pool prepared in phosphate buffered saline (PBS) containing 0.05% sodium dodecyl sulfate (SDS) or PBS+0.05% SDS alone (Control). All doses were 200 μl in volume, with additional treatments on days 11, 14 and 17 post-transplantation. Treatments were alternated between flanks of the mice. Tumor size (length, width and height) and mouse weights were measured three times per week. The results (FIGS. 6A-B) represent the average of the 4 mice in each group. […]

The test system of another assay is HeLa tumor. The assay can be described thus: In vivo nude mice experiment, HeLa tumor growth. Further details: species or system Nude nu/nu mice. The following applies: for inhibition of HeLa tumor growth during treatment phase (average tumor volume): n=3; for tumor growth profile post treatment: after fourth treatment until day 24, Pep A 500 and 750 μg, Pep B 500 μg; for response of individual tumors to treatment: tumor volumes on day 14, one day post last treatment; for vascularization and infiltration of isolated tumors (histopathology): compared to control mice. The protocol: The HeLa human cervical cancer cell line (ATCC, Manassas Va.; CCL-2) was grown according to direction in DMEM containing 10% fetal bovine serum. Cells in log phase were harvested from flasks using trypsin-EDTA (0.25% trypsin/1 mM Na-EDTA; Invitrogen), washed in PBS and resuspended in DMEM for counting and viability assessment using trypan blue exclusion. […] Cells were resuspended at 5×10^7 cells/mL in PBS for injection into the mice.
Nude nu/nu mice (4 to 5 week-old females) were acclimated for 1 week and injected with 5 million HeLa cells subcutaneously (SQ) in a total volume of 100 μL. After 3 days of tumor development, the mice were injected SQ with each peptide prepared in phosphate buffered saline (PBS) containing 0.05% sodium dodecyl sulfate (SDS) or PBS+0.05% SDS alone. All doses were 200 μL in volume, with additional treatments on days 6, 10 and 13 post-transplantation. Treatments were alternated between flanks of the mice. Tumor size and mouse weights were measured three times per week. The results represent the average of the 3 mice in each group. The experiment was terminated on day 24 and the tumors were excised for weight and histopathology.
HeLa cells (5×10^6 cells in 100 μL were administered subcutaneously (SQ). The cells were implanted in the left mid-flank region of 5 week old immunodeficient Nude nu/nu female mice (Charles River Labs, Wilmington, Mass.) and allowed to develop to palpable size (average diameter=[…]; average volume=24 mm^3). Mice were randomized and divided into experimental groups, with 3 mice per group. The mice were treated with SQ injections (200 μL) of various doses of peptide in phosphate buffered saline (PBS) containing a detergent, e.g., 0.05% sodium dodecyl sulphate (SDS). Control mice were injected with PBS containing 0.05% SDS alone. […] The treatments were administered on days 3, 6, 10 and 13 post-transplantation. Tumors were measured three times per week until the experiment was terminated on day 24 post-transplantation.

The subject of assay [2] is neo-vascularization of early chick embryo. Kind of assay: Chick embryo neo-vascularization inhibition assay. It is filed as in vivo, White Leghorn chick embryos. The settings on record: day-3.5 chick embryo, filter disks. The text has this: This assay was completed to determine the impact of Pep A and Pep B on neo-vascularization of early chick embryo. Small windows were created through the blunt end of the shell directly over the air sac of 3.5-day old White Leghorn chick embryos with the use of a small crafts Dremel drill. The air sac was peeled-off and filter disks with different concentrations of the test peptide or buffer control were placed over a section of the developing blood ring and overlapping connecting vessels of the chick embryo. The shell windows were sealed with parafilm and eggs were incubated at 37° C. in a humidified egg incubator. After 48-72 hours, the yolk membrane tissue directly below the filter disks was resected. Tissues were washed three times with PBS and analyzed for inhibition of neo-vascularization using a stereomicroscope with photo-digital attachment.

Assay [3] relates to bFGF induced angiogenesis. Kind of assay: Chicken chorioallantoic membrane (CAM) assay. The settings on record: for inhibition of bFGF-induced angiogenesis: day-10 chick embryos; for anti-angiogenic activity in CAM assay (overall): increasing doses, 100 ng or 200 ng bFGF, 48 hours at 37° C. It is filed as in vivo, White Leghorn chick embryos. The text has this: The chicken chorioallantoic membrane (CAM) assay was completed to assess the effect of the peptides on basic fibroblast growth factor (bFGF) induced angiogenesis. Small windows were created through the blunt end of the shell directly over the air sac of 9-10 day old White Leghorn chick embryos with the use of a small crafts Dremel drill. The air sac was peeled-off, and filter disks saturated with basic fibroblast growth factor (bFGF) and the test peptide (or buffer control) were placed adjacent to each other on the CAM of the chick embryo. The shell windows were sealed with parafilm and eggs were incubated at 37° C. in a humidified egg incubator. After 48-72 hours, the CAM tissue directly below the filter disks was resected. Tissues were washed three times with PBS and analyzed using a stereomicroscope. The number of branching blood vessels infiltrating under the filter disks were determined and documented.

The test system of another assay is CAM tissue cells. The assay can be described thus: Detection of cell death in resected CAM tissues (H-33342 and propidium iodide staining). It is filed as in vivo, chick embryos. The settings on record: for apoptosis / DNA fragmentation (H-33342 staining): 100 ng bFGF plus 200 ng peptide. The protocol: Following staining, the tissues were washed three times in PBS and fixed in 4% formalin. The tissues were visualized under epifluorescence using a photo-digital imaging system. The number of live, apoptotic and necrotic cells were determined.

[4] abbreviates: 500 μg per dose SQ on days 3, 6, 10 and 13.
Where [5] appears, read: 200 ng peptide with 100 ng bFGF.

The values that follow come from patent US7326679B2, “Anticancer peptide compositions” (TranXenoGen, Inc., priority 2003, dated 2008).

“Also recorded” adds a separate entry of the source. Square brackets hold non-standard residues; d marks the D form. Ends that are not written are not given here. pGlu = O=C1CC[C@@H](C(=O)O)N1

Turning to “6 mer: residues 5-10 of SEQ ID NO:1 (YTCKEP)”, the “osteosarcoma tumor volume (tumor burden)” value in assay [1] is recorded as “reduction of osteosarcoma tumor volume”.

With ELKCYTCKEPMTSASCRTIT [Pep A], the “inhibition of HeLa tumor growth during treatment phase (average tumor volume)” value in the assay on HeLa tumor (setting [4]) was “tumor inhibition during the treatment phase”; in the assay with HeLa tumor (750 μg per dose SQ on days 3, 6, 10 and 13) it was “tumor inhibition during the treatment phase”. Moreover, the “tumor growth profile post treatment” value with HeLa tumor is recorded as “slight increase in tumor burden; also recorded: only limited tumor growth for the duration of the experiment”. Moreover, the “response of individual tumors to treatment” value in the assay on HeLa tumor is on record as “response of all animals”. The “areas of cell death in isolated tumors (histopathology)” value with HeLa tumor (tumors isolated upon sacrifice) is recorded as “larger areas of cell death; also recorded: noticeably larger”. Further, the “vascularization and infiltration of isolated tumors (histopathology)” value with HeLa tumor (tumors isolated upon sacrifice) is “significantly less vascularization and infiltration”. In addition, the “suppression of neo-vascularization / branching vessel formation” value in assay [2] was “dose dependent suppression of branching vessel formation”. For the same substance, the “suppression of bFGF-induced angiogenesis” value in assay [3] (200 ng of bFGF) is “showed suppression”. In addition, the “inhibition of bFGF-induced angiogenesis” value is “comparatively better inhibition of blood vessel infiltration” in assay [3] (setting [5]); “inhibition of neo-vascularization and infiltration as well as degradation of pre-existing vessels” in assay [3] (Pep A with 100 ng bFGF). Further, the “anti-angiogenic activity in CAM assay (overall)” value in assay [3] was “inhibited angiogenesis; also recorded: more potent anti-angiogenic agent”. Also, the figures for the “apoptosis / DNA fragmentation (H-33342 staining)” value in the assay with CAM tissue cells and with CAM tissue cells (listed as PepA) were “Intensely staining apoptotic nuclei (white) of vascular cells; also recorded: significant increase in DNA fragmentation” and “induces cell death by apoptosis”, respectively. The “osteosarcoma tumor volume (tumor burden)” value in assay [1] is given as “reduction of osteosarcoma tumor volume”.

For the substance “pyroELKCYTCKEPMTSASCRTIT ([pGlu]LKCYTCKEPMTSASCRTIT; cysteine pairing not given here) [Pep B]”, in the assay on HeLa tumor (setting [4]), the “inhibition of HeLa tumor growth during treatment phase (average tumor volume)” value is recorded as “tumor inhibition during the treatment phase”. For the same substance, in the assay on HeLa tumor, the “tumor growth profile post treatment” value is “escalation of tumor burden; also recorded: lost shortly after treatment stopped” and the “response of individual tumors to treatment” value is reported as “response of all animals”. In the assay with HeLa tumor (tumors isolated upon sacrifice), the “vascularization and infiltration of isolated tumors (histopathology)” value is “significantly less vascularization and infiltration”. Also, the “suppression of neo-vascularization / branching vessel formation” value in assay [2] is listed as “dose dependent suppression of branching vessel formation”. The “inhibition of bFGF-induced angiogenesis” value in assay [3] (setting [5]) is recorded as “inhibition of bFGF-induced angiogenesis”. In addition, the “anti-angiogenic activity in CAM assay (overall)” value in assay [3] is recorded as “inhibited angiogenesis”. For the same substance, the “apoptosis / DNA fragmentation (H-33342 staining)” value in the assay on CAM tissue cells is “did not demonstrate the peri-vascular apoptosis; also recorded: minimal increase in apoptosis over the control”. The “condensation of the cell nuclei” value in the assay with CAM tissue cells (compared to controls) is “observable condensation of the cell nuclei”.
